Values joined by “and” are separate entries in the source; they are usually repeats but may differ in a detail not shown here. Identical values can stand only once.
Compound `COc1cc(NS(C)(=O)=O)ccc1Nc1c2ccccc2nc2c(C(=O)NCC(O)CO)cccc12` (stereo not drawn) has a pKa of 6.34.
Compound `CCCCNC(=O)NS(=O)(=O)c1ccc(C)cc1` has a pKa of 5.3.
`NC(=O)Cc1ccc(Nc2c3ccccc3nc3ccccc23)cc1` gave a pKa of 7.43.
With `c1ccc(NC2=NCCN2)cc1` the pKa was 10.1.
Work on `Cn1ccnc1[N+](=O)[O-]` yielded a pKa of 0.48.
Work on `CS(=O)(=O)O.NC(=O)Cc1ccc(Nc2c3ccccc3nc3ccccc23)cc1` yielded a pKa of 7.43.
For `CN(C)CCCC1(c2ccc(C(C)(C)C)cc2)COC1`, the pKa was 9.6.
For `CCN(C)C`, the pKa was 10.2.
`Cc1ccc(NS(=O)(=O)Cc2ccccc2)c(=O)n1CC(=O)NCc1ccc(C(=N)N)c(F)c1` gave a pKa of 9.2.
With `CC(=O)N[C@@H](Cc1cc(F)cc(F)c1)[C@H](O)CNC1(c2cc(C(C)(C)C)ncn2)CCCCC1` the pKa was 6.7.
For `CS(=O)(=O)Nc1ccc(Nc2c3ccccc3nc3cccc(Cl)c23)cc1`, the pKa was 5.86.
In the case of `CC(=O)Nc1ccccc1Nc1c2ccccc2nc2ccccc12`, the pKa is reported as 7.24.
`CS(=O)(=O)Nc1ccc(Nc2c3ccccc3nc3ccccc23)cc1.Cl` showed a pKa of 7.19.
`Cc1nc2c(C/C=C/c3ccccc3)cccn2c1CC#N` gave a pKa of 6.
With `COc1cc(NS(C)(=O)=O)ccc1Nc1c2ccccc2nc2cc(C)ccc12` the pKa was 7.7.
Compound `COc1cc(NS(C)(=O)=O)ccc1Nc1c2ccccc2nc2c(OCCO)cccc12` has a pKa of 7.36.
Compound `CN1CCC[C@H]1c1cccnc1` has a pKa of 8.1.
Compound `CCc1cccc(CC)c1NC1=NCCN1` has a pKa of 10.6.
Work on `CS(=O)(=O)Nc1ccc(Nc2c3ccccc3nc3c([N+](=O)[O-])cccc23)cc1` yielded a pKa of 4.88.
Work on `CN(C)CCCNc1ccnc2cccc([N+](=O)[O-])c12` yielded a pKa of 6.39.
`Cc1cnc(NCC(F)(F)c2ccccc2)c(=O)n1CC(=O)NCc1cnc(N)cn1` gave a pKa of 2.7.
Work on `O=C(O)CCc1ccccc1` yielded a pKa of 4.64.
In the case of `O=C1CC2(CCCC2)CC(=O)N1CCCCN1CCN(c2ncccn2)CC1`, the pKa is reported as 7.8.
`Cc1ccc(NS(=O)(=O)Cc2ccccc2)c(=O)n1CC(=O)NCc1ccc(C(=N)N)s1` showed a pKa of 10.3.
For `CN(C)CCCCc1ccc(C2COC2)cc1`, the pKa was 9.9.
In the case of `O=c1n(CCCN2CCN(c3cccc(Cl)c3)CC2)nc2ccccn12`, the pKa is reported as 6.7 and 6.73 and 6.79.
`N[C@H]1C[C@]1(F)c1ccccc1` showed a pKa of 7.35.
Work on `COC(=O)Nc1ccccc1Nc1c2ccccc2nc2ccccc12` yielded a pKa of 7.24.
`CN(C)C(=O)C1C2c3ccccc3C(c3ccccc32)C1C(=O)N(C)C` (stereo not drawn) showed a pKa of -1.34.
`CN1C=CC(C2NC(C(F)(F)F)=CN2c2ccc(S(N)(=O)=O)cc2)C=C1` (stereo not drawn) showed a pKa of 7.58.
Work on `Oc1nsc2c1CCNC2` yielded a pKa of 8.5.
`Clc1ccc(Cl)c(N=C2NCCN2)c1` showed a pKa of 8.5.
In the case of `O=P(O)(O)CCc1ccccc1`, the pKa is reported as 2.34.
With `CN(C)CCCCc1ccc(C(C)(C)C)cc1` the pKa was 9.9.
For `CN(c1ccc(Nc2c3ccccc3nc3ccccc23)cc1)S(C)(=O)=O`, the pKa was 6.95.
For `NC(=O)CF`, the pKa was 22.3.
With `Oc1cc(C2CCNCC2)sn1` the pKa was 10.7.
With `NC(=O)CCCc1ccc(Nc2c3ccccc3nc3ccccc23)cc1` the pKa was 7.67.
Work on `Cc1cnc(NCCc2ccccc2)c(=O)n1CC(=O)NCc1ccc(C(=N)N)cc1` yielded a pKa of 10.2.
Compound `Nc1nc2ccccc2[nH]1` has a pKa of 7.5.
With `Clc1ccccc1N=C1NCCN1` the pKa was 9.15.
`CC(C)n1c(/C=C/C(O)CC(O)CC(=O)O)c(-c2ccc(F)cc2)c2ccccc21` (stereo not drawn) gave a pKa of 4.31.
In the case of `Clc1ccc(N=C2NCCN2)c(Cl)c1`, the pKa is reported as 8.73.
In the case of `Fc1cccc(Cl)c1N=C1NCCN1`, the pKa is reported as 8.01.
With `COc1ccc2nc3ccccc3c(Nc3ccc(NS(C)(=O)=O)cc3)c2c1` the pKa was 6.87.
Work on `CN(C)CC1C2c3ccccc3C(c3ccccc32)C1CN(C)C` (stereo not drawn) yielded a pKa of 9.19.
In the case of `CCN(CC)CCCC(C)Nc1c2ccc(Cl)cc2nc2ccc(OC)cc12` (stereo not drawn), the pKa is reported as 10.2.
Work on `N#Cc1ccc(Nc2c3ccccc3nc3ccccc23)cc1` yielded a pKa of 5.93.
`c1cnon1` showed a pKa of -5.
`OCCN1CCN(CCCN2c3ccccc3Sc3ccc(Cl)cc32)CC1` showed a pKa of 7.8.
For `CCc1ccccc1Nc1c2ccccc2nc2ccccc12`, the pKa was 7.68.
With `Cc1cnc(NCCc2ccccc2)c(=O)n1CC(=O)NC[C@@H]1CNC(N)=N[C@@H]1C` the pKa was 14.
Work on `CCC1(c2ccccc2)C(=O)NC(=O)NC1=O` yielded a pKa of 7.5.
